Measurements published in patent US5594157A, “Process for making taxol derivatives” (Abbott Laboratories, priority 1995, dated 1997).
Values after ≈ are worked out from the molar mass of the structure shown.

Columns and labels:
[1] = test system: other tumor types; conditions: preliminary investigations; cited from earlier work
[2] = test system: advanced breast and ovarian cancers; conditions: cited from earlier work
[3] = test system: P-388; experiment: In vitro tumor cell cytotoxicity, three day MTT microtiter assay (P-388); format: cell-based, mouse; conditions: P388, 72 h; P-388 (mouse leukemia); 3 days, MTT, absorbance at 570 nm; read-out: In vitro tumor cell cytotoxicity (IC50)
Protocol: (§1) A three day microtiter assay was used to measure the growth inhibition of cultured cells exposed to a range of drug concentrations. Metabolic activity was measured by the cells' ability to reduce the tetrazolium dye, MTT (3-(4,5-dimethylthiazol-2-yl-2,5-diphenyltetrazolium bromide) to a quantifiable colored end product, which absorbs at 570 nm in the visible spectrum. Surviving cells reduce the MTT dye.
(§2) Test compounds were dissolved in dimethyl sulfoxide (DMSO) and diluted, first with Earle's Balanced Salt Solution, followed by culture medium, to twice the highest concentration of compound to be tested. From this concentrated stock, two-fold serial dilutions were prepared in 96-well microtiter trays, each well containing twice the desired final concentration of compound. Each concentration was tested in triplicate and compared to triplicate drug-free controls.
(§3) The cells were grown in the same medium used for diluting the compounds and then harvested using trypsinization. This involved removing the medium by aspiration; rinsing the cell monolayer twice with Earle's Balanced Salt Solution; adding trypsin (0.05%)/EDTA (0.53 mM; for each 25 cm^2, approximately 0.2 mL), tilting to cover the monolayer, and then withdrawing trypsin leaving only a thin film of solution; incubating at room temperature until the cell monolayers detached (as determined by visual and/or microscopic observation); adding medium contaiing fetal calf serum to stop the action of the trypsin and resuspend the cells; triturating to aid dissociation of cell clumps; and determining the number of cells per milliliter by electronic cell counter (e.g. Coulter Counter) or by mixing an aliquot of cell suspension with Trypan Blue (0.4% in normal saline) and counting the viable cells using a hemacytometer.
(§4) After harvesting and determination of viable cell counts, cell density was adjusted to 25,000 cells/mL. Inoculum (0.1 mL) containing the cells was then added to each well for a final concentration of 2,500 cells per well. Addition of the inoculum diluted the test compounds to the desired final concentration.
(§5) Microtiter trays were then incubated for three days at 36° C. in a humidified atmosphere containing 5% carbon dioxide. After three days, 20 microtiters of 5 mg/mL MTT in phosphate-buffered saline solution were added to each well. Trays were returned to the incubator for two to four hours to allow the surviving cells to reduce the dye. Medium and unreduced dye were removed by aspiration. DMSO was added to each well to dissolve the water-insoluble, colored end product of the dye reduction so that it could be measured spectrophotometrically at 570 nm.

[4] = test system: A549; experiment: In vitro tumor cell cytotoxicity, three day MTT microtiter assay (A549); format: cell-based, human; conditions: Homo sapiens, 72 h; A549; 3 days, MTT, absorbance at 570 nm; read-out: In vitro tumor cell cytotoxicity (IC50)
Protocol: as §1, §2, §3, §4, §5

| Structure (SMILES) | activity against other tumor types [1] | effectiveness in clinical trials [2] | IC50 [3] [µg/mL] | IC50 [4] [µg/mL] |
| --- | --- | --- | --- | --- |
| CC(=O)O[C@H]1C(=O)[C@@]2(C)[C@H]([C@H](OC(=O)c3ccccc3)[C@]3(O)C[C@H](OC(=O)[C@H](O)[C@@H](NC(=O)c4ccccc4)c4ccccc4)C(C)=C1C3(C)C)[C@]1(OC(C)=O)CO[C@@H]1C[C@@H]2O [Taxol] | promising activity against a number of other tumor types | effective against advanced breast and ovarian cancers in clinical trials |  |  |
| CC(=O)O[C@@H]1C2=C(C)[C@@H](OC(=O)[C@H](O)[C@@H](NC(=O)c3ccccc3)c3ccccc3)C[C@@](O)([C@@H](OC(=O)c3ccccc3)[C@@H]3[C@]4(OC(C)=O)CO[C@@H]4C[C@H](OCC(O)CO)[C@@]3(C)[C@H]1O)C2(C)C (stereo partly shown) [Example 16, 9-dihydrotaxol 7-O-(2,3-dihydroxypropyl) ether] |  |  | > 1 | 0.626 (≈ 0.673 µM) |
